Test results: patent publication US20050096395A1, “Methods of treating attention deficit/hyperactivity disorder (adhd)” (priority 2002, published 2005)

Assays:
[1] = test system: patients with AD/HD and comorbid tic disorder; assay: randomized, double-blind, placebo-controlled trial in patients with AD/HD and comorbid tic disorder; type: in vivo, human; settings: patients 7-15 years; 1.5-2 mg/kg/day; after 8 weeks of treatment
Description: This study is a randomized, double-blind, placebo-controlled trial of parallel groups. […] Before entry into the study, each patient undergoes a detailed clinical evaluation by a psychiatrist and/or a psychologist. The diagnosis of AD/HD and comorbid tic disorder is made on the basis of this interview. Entry criteria includes age between 7 and 15 years, a DSM-IV diagnosis of AD/HD (any type), a DSM-IV tic disorder (any type), and a score of ≧1.5 standard deviation units for age and gender on the 10-item Conners hyperactivity index (Goyette et al., 1978, J. Abnorm. Child Psychol., 6: 221-236) rated by a teacher or parent. Exclusion criteria includes evidence of major depression, generalized anxiety disorder, separation anxiety disorder, or psychotic symptoms. Children with moderate or more severe tic symptoms (Yale Global Tic Severity Scale [[…] et al., 1989, J Am Acad Child Adolesc Psychiatry, 28: 566-573] total tic score of>22) or significant obsessive-compulsive symptoms (Children's Yale Brown Obsessive Compulsive Scale [[…] et al., 1997, J Am Acad Child Adolesc Psychiatry, 36: 844-852] total score>15) are also excluded. Before entry into the study the patients are tapered off their current medication. The participants in the study are randomly divided into two groups-milnacipran group and placebo control group. Each group consists of 5 patients. […] The patients in the placebo group are administered a placebo for 8 weeks. The patient's course is followed at visits with a primary clinician, who is blind to the patient's study group, every 2 weeks. The AD/HD rating scale, Clinical Global Impression global improvement score, and Yale Global Tic Severity Scale are used to follow the outcome measures. […] Each symptom was scored by the child's teacher from 0 to 3 (0=never [or rarely], 1=sometimes, 2=often, and 3=very often). […] A score of much improved or very much improved, reflecting meaningful improvement in AD/HD symptoms both at school and at home, is counted as a positive response. […]

[2] = test system: spontaneously hypertensive rats (SHR); assay: delayed gratification response paradigm in animal model of AD/HD; type: in vivo, rat; settings: 5, 10, 25 or 50 mg/kg over twenty-one days
Description: In this study, spontaneously hypertensive rats (SHR) are used as an animal model for AD/HD. The SHR animal model is described in Russell et al., 2000, Behavioral Brain Research, 117: 69-74; Russell, 2001, Metab. Brain Dis., 16: 143-149; and Sagvolden et al., 1992, Behav. Neural Biol., 58: 103-112. The study consists of two groups of rats: normal and SHR. Each group is further divided into two subgroups: placebo and milnacipran. […] The milnacipran is administered to the rats over a period of twenty-one days. The rats are from the normal and SHR groups are trained in the delayed gratification response paradigm as described in […] et al., 1996, Pharmacology and Biochemistry and Behavior, 54: 149-157. In this paradigm, rats learn to choose between five food pellets delivered after 30 seconds and one food pellet delivered after 5 seconds. Normal rats learn to choose the five food pellets delivered after 30 seconds at a higher frequency.

[3] = test system: rats described in McGrath et al., 2000; assay: animal model of tic disorder (McGrath et al., 2000); type: in vivo, rat; settings: 5, 10, 25 or 50 mg/kg over twenty-one days, before vs after administration
Description: The rats are divided into two groups: placebo and milnacipran. […] The milnacipran is administered to the rats over a period of twenty-one days.

norepinephrine reuptake = settings: cited from earlier work
NMDA receptor = settings: cited from earlier work

CCN(CC)C(=O)[C@]1(c2ccccc2)C[C@@H]1CN (racemic) [milnacipran, cis-(±)-2-(aminomethyl)-N,N-diethyl-1-phenyl-yclopropanecarboxamide]
AD/HD Rating Scale [1]: improvement
Clinical Global Improvement Scale [1]: improvement
Yale Global Tic Severity Scale [1]: improvement
time required by SHR rats to choose five food pellets delivered after 30 seconds at a higher frequency [2]: reduced, approaching the amount of time required by the normal rats
abnormal behavior such as climbing/leaping, gnawing, and other tic-like behaviors [3]: reduces the abnormal behavior
IC50 (NMDA receptor): ~6.3 µM
